Assays:
MPP-89 (Mesothelioma) = assay: combination Emax (second highest fraction inhibited in the dose matrix, 72 h); higher = more inhibition; extreme values may be limits of the assay
Summary of the method: (§1)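 Bliss excess equals the observed combination effect minus the expected value EA + EB − EA·EB, where EA and EB are the effects of each agent alone. Combination Emax is the second-highest inhibition within the matrix. Inhibition was scaled from CellTiter-Glo 2.0 luminescence, with 0 set by vehicle wells and 1 by blank wells, after 72 hours of two-drug dosing of cells plated in 1536-well plates.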

[1] = tested on: Detroit562 (Head and Neck Carcinoma); assay: as above
Summary of the method: as §1

EW-11 (Ewing's Sarcoma) [2] = assay: as above
Summary of the method: as §1

NCI-H2052 (Mesothelioma) = assay: as above
Summary of the method: as §1

[3] = tested on: OE21 (Esophageal Squamous Cell Carcinoma); assay: Bliss excess, mean over the matrix (fraction); higher = more synergy
Summary of the method: as §1

[4] = tested on: SNU-449 (Hepatocellular Carcinoma); assay: as above
Summary of the method: as §1

[5] = tested on: Hs-746T (Gastric Carcinoma); assay: as above
Summary of the method: as §1

[6] = tested on: HuCCT1 (Biliary Tract Carcinoma); assay: as above
Summary of the method: as §1

[7] = tested on: Detroit562 (Head and Neck Carcinoma); assay: as above
Summary of the method: as §1

EW-11 (Ewing's Sarcoma) [8] = assay: as above
Summary of the method: as §1

[9] = tested on: SW1710 (Bladder Carcinoma); assay: as above
Summary of the method: as §1

CAL-72 (Osteosarcoma) = assay: as above
Summary of the method: as §1

[10] = tested on: WSU-NHL (B-Cell Non-Hodgkin's Lymphoma); assay: as above
Summary of the method: as §1

KS-1 (Glioblastoma) = assay: as above
Summary of the method: as §1

[11] = tested on: NCI-H524 (Small Cell Lung Carcinoma); assay: as above
Summary of the method: as §1

[12] = tested on: BE-13 (T-Lymphoblastic Leukemia); assay: as above
Summary of the method: as §1

[13] = tested on: ALL-PO (B-Lymphoblastic Leukemia); assay: as above
Summary of the method: as §1

A673 (Ewing's Sarcoma) = assay: as above
Summary of the method: as §1

[14] = tested on: HuH-7 (Hepatocellular Carcinoma); assay: as above
Summary of the method: as §1

[15] = tested on: SNU-16 (Gastric Carcinoma); assay: as above
Summary of the method: as §1

Row | SMILES | combination Emax (MPP-89 (Mesothelioma)) | combination Emax [1] | combination Emax (EW-11 (Ewing's Sarcoma) [2]) | combination Emax (NCI-H2052 (Mesothelioma)) | Bliss excess [3] | Bliss excess [4] | Bliss excess [5] | Bliss excess [6] | Bliss excess [7] | Bliss excess (EW-11 (Ewing's Sarcoma) [8]) | Bliss excess [9] | Bliss excess (CAL-72 (Osteosarcoma)) | Bliss excess [10] | Bliss excess (KS-1 (Glioblastoma)) | Bliss excess [11] | Bliss excess [12] | Bliss excess [13] | Bliss excess (A673 (Ewing's Sarcoma)) | Bliss excess [14] | Bliss excess [15]
1 | C[C@@H](c1ccc2nccn2c1)n1nnc2ncc(-c3cnn(C)c3)nc21 [Savolitinib] + Cc1c2c(nn1C)CSCc1cc(n(C)n1)CSc1cc(c3ccccc3c1)OCCCc1c(C(=O)O)n(C)c3c-2c(Cl)ccc13 [AZD5991] (first compound max 1 µM, 7x7, partner max 1 µM) | 0.237 | 0.26 | 0.491 | 0.185 | -0.0479 | -0.0432 | -0.0489 | -0.0556 | 0.0497 | 0.0361 | -0.0351 | -0.0077 | -0.0467 | -0.0509 | -0.0115 | 0.065 | -0.0254 | 0.0471 | -0.0276 | -0.047
2 | CN(CCO)CC[C@H](CSc1ccccc1)Nc1ccc(S(=O)(=O)NC(=O)c2ccc(N3CCC([C@@H](O)c4ccccc4-c4ccc(Cl)cc4)CC3)cc2)cc1S(=O)(=O)C(F)(F)F [AZD4320] + Cc1cc2ncnn2cc1Nc1ncc2c(n1)n(C1CCOCC1)c(=O)n2C [AZD7648] (first compound max 1 µM, 7x7, partner max 10 µM) | 0.281 | 0.22 | 0.829 | 0.245 | -0.0187 | -0.0811 | -0.0371 | -0.0407 | -0.0281 | -0.0468 | -0.058 | 0.0278 | -0.0087 | 0.0033 | -0.044 | 0.0028 | 0.0085 | 0.0069 | 0.004 | 0.0237
3 | Cc1cc2ncnn2cc1Nc1ncc2c(n1)n(C1CCOCC1)c(=O)n2C [AZD7648] + C=CCn1c(=O)c2cnc(Nc3ccc(N4CCN(C)CC4)cc3)nc2n1-c1cccc(C(C)(C)O)n1 [AZD1775] (first compound max 10 µM, partner max 1 µM) | 0.559 | 0.704 | 0.599 | 0.512 | -0.0013 | 0.0041 | -0.0827 | 0.0065 | 0.0575 | -0.029 | 0.0692 | -0.0194 | 0.0072 | 0.0297 | -0.0254 | 0.0217 | 0.0488 | -0.0306 | 0.0039 | -0.0345
4 | COc1cc2ncnc(Nc3ccc(F)c(Cl)c3)c2cc1OCCCN1CCOCC1 [Gefitinib] + CC(C)n1c(=O)n(C)c2cnc3cc(F)c(-c4ccc(OCCCN5CCCCC5)nc4)cc3c21 [AZD1390] (first compound max 10 µM, 7x7, partner max 0.3 µM) | 0.112 | 0.471 | 0.171 | 0.137 | -0.0696 | -0.0529 | -0.0759 | -0.0347 | -0.0476 | -0.0563 | -0.041 | -0.0555 | -0.0499 | -0.0599 | -0.0431 | -0.0956 | -0.0558 | -0.047 | -0.042 | -0.0183
5 | C[C@@H](c1ccc2nccn2c1)n1nnc2ncc(-c3cnn(C)c3)nc21 [Savolitinib] + CN(CC[C@H](CSC1=CC=CC=C1)NC2=C(C=C(C=C2)S(=O)(=O)NC(=O)C3=CC=C(C=C3)N4CCC(CC4)[C@H](C5=CC=CC=C5C6=CC=C(C=C6)Cl)O)S(=O)(=O)C(F)(F)F)CCO [AZD4320] (first compound max 1 µM, 7x7, partner max 1 µM) | – | 0.237 | – | 0.225 | -0.043 | – | -0.0049 | – | -0.0189 | – | – | – | – | – | – | – | -0.0307 | – | -0.0064 | –
6 | Cc1cc2ncnn2cc1Nc1ncc2c(n1)n(C1CCOCC1)c(=O)n2C [AZD7648] + C[C@@H]1COCCN1C2=NC(=NC(=C2)C3(CC3)[S@](=N)(=O)C)C4=C5C=CNC5=NC=C4 [AZD6738] (first compound max 10 µM, 7x7, partner max 10 µM) | 0.564 | 0.848 | 0.748 | 0.413 | -0.0793 | 0.0318 | -0.0119 | -0.0087 | 0.0217 | 0.0104 | 0.0067 | 0.0292 | -0.0181 | -0.0011 | 0.035 | -0.0121 | 0.0381 | -0.0295 | 0.0151 | -0.009
7 | Cc1cc2ncnn2cc1Nc1ncc2c(n1)n(C1CCOCC1)c(=O)n2C [AZD7648] + CN(C)CCCOc1ccc(-c2ccc3ncc4c(c3c2)n(C2CCOCC2)c(=O)n4C)cn1 [AZD0156] (first compound max 10 µM, 7x7, partner max 1 µM) | 0.302 | 0.419 | 0.549 | 0.428 | -0.0629 | -0.0457 | -0.024 | 0.0032 | 0.0129 | -0.0549 | -0.01 | -0.0908 | -0.0531 | -0.068 | 0.0254 | -0.0188 | 0.0524 | -0.0142 | -0.006 | 0.0214
8 | N#Cc1cnc(Nc2cc(NC[C@H]3CNCCO3)c(C(F)(F)F)cn2)cn1 [SRA737] + C=CCn1c(=O)c2cnc(Nc3ccc(N4CCN(C)CC4)cc3)nc2n1-c1cccc(C(C)(C)O)n1 [AZD1775] (first compound max 10 µM, partner max 1 µM) | 0.661 | – | 0.603 | – | – | 0.0354 | – | -0.0292 | – | 0.0992 | 0.0292 | 0.0934 | 0.187 | 0.0472 | 0.108 | 0.0657 | – | 0.0914 | – | 0.109
9 | N#Cc1cnc(Nc2cc(NC[C@H]3CNCCO3)c(C(F)(F)F)cn2)cn1 [SRA737] + O=c1[nH]cc(F)c(=O)[nH]1 [5-Fluorouracil] (first compound max 10 µM, 7x7, partner max 20 µM) | 0.424 | – | 0.5 | – | – | -0.0175 | – | 0.102 | – | -0.0246 | -0.0212 | 0.0294 | 0.0005 | -0.0464 | 0.0593 | -0.0334 | – | 0.0354 | – | 0.0632
10 | CN(CCO)CC[C@H](CSc1ccccc1)Nc1ccc(S(=O)(=O)NC(=O)c2ccc(N3CCC([C@@H](O)c4ccccc4-c4ccc(Cl)cc4)CC3)cc2)cc1S(=O)(=O)C(F)(F)F [AZD4320] + CC(=O)O[C@H]1C(=O)[C@@]2(C)[C@H]([C@H](OC(=O)c3ccccc3)[C@]3(O)C[C@H](OC(=O)[C@H](O)[C@@H](NC(=O)c4ccccc4)c4ccccc4)C(C)=C1C3(C)C)[C@]1(OC(C)=O)CO[C@@H]1C[C@@H]2O [Paclitaxel] (first compound max 1 µM, 7x7, partner max 3 µM) | 0.983 | – | 0.927 | – | – | -0.0162 | – | 0.0276 | – | 0.0303 | 0.141 | 0.19 | 0.0294 | 0.217 | 0.0333 | 0.0037 | – | 0.0654 | – | 0.0287
11 | N#Cc1cnc(Nc2cc(NC[C@H]3CNCCO3)c(C(F)(F)F)cn2)cn1 [SRA737] + Nc1ccn([C@@H]2O[C@H](CO)[C@@H](O)C2(F)F)c(=O)n1 [Gemcitabine] (first compound max 10 µM, 7x7, partner max 0.3 µM) | 0.656 | – | 0.854 | – | – | 0.0307 | – | 0.0507 | – | -0.0557 | 0.164 | 0.0042 | 0.017 | 0.0304 | 0.0346 | 0.0965 | – | 0.0343 | – | -0.103
12 | CN(CCO)CC[C@H](CSc1ccccc1)Nc1ccc(S(=O)(=O)NC(=O)c2ccc(N3CCC([C@@H](O)c4ccccc4-c4ccc(Cl)cc4)CC3)cc2)cc1S(=O)(=O)C(F)(F)F [AZD4320] + C[C@@H]1COCCN1C2=NC(=NC(=C2)C3(CC3)[S@](=N)(=O)C)C4=C5C=CNC5=NC=C4 [AZD6738] (first compound max 1 µM, 7x7, partner max 10 µM) | 0.794 | 0.905 | 0.957 | 0.439 | 0.0053 | -0.0721 | -0.0021 | -0.0681 | -0.015 | 0.012 | -0.0455 | 0.05 | -0.104 | 0.0082 | -0.0467 | -0.0251 | 0.0019 | 0.028 | -0.0144 | 0.0219
13 | COc1nnc2ccc(N3CCC(c4ccc(OCCN5CCN(C)C(=O)[C@H]5C)cc4)CC3)nn12 [AZD5153] + CN(CC[C@H](CSC1=CC=CC=C1)NC2=C(C=C(C=C2)S(=O)(=O)NC(=O)C3=CC=C(C=C3)N4CCC(CC4)[C@H](C5=CC=CC=C5C6=CC=C(C=C6)Cl)O)S(=O)(=O)C(F)(F)F)CCO [AZD4320] (first compound max 1 µM, 7x7, partner max 1 µM) | – | 0.942 | – | 0.189 | 0.0129 | – | 0.0125 | – | 0.0847 | – | – | – | – | – | – | – | 0.0079 | – | 0.11 | –
14 | CN(CCO)CC[C@H](CSc1ccccc1)Nc1ccc(S(=O)(=O)NC(=O)c2ccc(N3CCC([C@@H](O)c4ccccc4-c4ccc(Cl)cc4)CC3)cc2)cc1S(=O)(=O)C(F)(F)F [AZD4320] + Nc1ccn([C@@H]2O[C@H](CO)[C@@H](O)C2(F)F)c(=O)n1 [Gemcitabine] (first compound max 1 µM, 7x7, partner max 0.3 µM) | 0.78 | – | 0.92 | – | – | -0.0558 | – | -0.0245 | – | 0.0215 | -0.0401 | 0.129 | -0.0505 | -0.0337 | -0.0216 | -0.0285 | – | 0.0335 | – | 0.0538
15 | Cc1cc2ncnn2cc1Nc1ncc2c(n1)n(C1CCOCC1)c(=O)n2C [AZD7648] + COc1cc([C@@H]2c3cc4c(cc3[C@@H](O[C@@H]3O[C@@H]5CO[C@@H](C)O[C@H]5[C@H](O)[C@H]3O)[C@H]3COC(=O)[C@H]23)OCO4)cc(OC)c1O [Etoposide] (first compound max 10 µM, 7x7, partner max 10 µM) | 0.604 | – | 0.682 | – | – | 0.0282 | – | 0.0335 | – | 0.0002 | -0.0119 | 0.0314 | 0.0848 | 0.0894 | 0.101 | 0.0881 | – | 0.111 | – | 0.0953

From the supplement of paper PMC11061612
